In PubChem BioAssay AID330 (DTP/NCI, 2004) one finds T/C data, which are given here for 24 compounds.

Values joined by “and” are separate entries in the source; they are usually repeats but may differ in a detail not shown here. Identical values can stand only once. Toxic doses and inconclusive results are not listed. Square brackets hold non-standard residues; d marks the D form. Peptide text beside a SMILES is read from it. ξ: configuration not given here. ξPhe(4-N(CH2CH2Cl)2) = NC(Cc1ccc(N(CCCl)CCCl)cc1)C(=O)O; Aad = N[CH](CCCC(=O)O)C(=O)O

The subject of the assay is P388 leukemia ip, CD2F1 mice, survival T/C. The assay is described as follows: NCI In Vivo Anticancer Drug Screen. Data for tumor model P388 Leukemia (intraperitoneal) in CD2F1 (CDF1) mice. The following applies: endpoint: median survival time, higher = longer survival. An outline of the steps:
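Mice carrying the transplanted tumor received test compound or vehicle. Survival was recorded in each group, and the value is the treated-group measurement divided by that of the vehicle-treated control group.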

The mark [1] stands for this setting: dose: 50.0 mg/kg/injection, schedule: Q01DX005 (ip), vehicle: saline with Tween-80.
[2] abbreviates: dose: 100.0 mg/kg/injection, schedule: Q01DX005 (ip), vehicle: saline with Tween-80.
Where [3] appears, read: dose: 100.0 mg/kg/injection, schedule: Q01DX001 (ip), vehicle: saline with Tween-80.
Setting [4] is: dose: 200.0 mg/kg/injection, schedule: Q01DX001 (ip), vehicle: saline with Tween-80.
Where [5] appears, read: dose: 200.0 mg/kg/injection, schedule: Q01DX005 (ip), vehicle: saline with Tween-80.
Where [6] appears, read: dose: 12.5 mg/kg/injection, schedule: Q01DX009 (ip), vehicle: saline.
Setting [7] is: dose: 25.0 mg/kg/injection, schedule: Q01DX009 (ip), vehicle: saline.
Where [8] appears, read: dose: 50.0 mg/kg/injection, schedule: Q01DX009 (ip), vehicle: Klucel (hydroxypropylcellulose) (HPC).
The mark [9] stands for this setting: dose: 100.0 mg/kg/injection, schedule: Q01DX009 (ip), vehicle: Klucel (hydroxypropylcellulose) (HPC).
Where [10] appears, read: dose: 200.0 mg/kg/injection, schedule: Q01DX009 (ip), vehicle: Klucel (hydroxypropylcellulose) (HPC).
The mark [11] stands for this setting: dose: 25.0 mg/kg/injection, schedule: Q01DX005 (ip), vehicle: Klucel (hydroxypropylcellulose) (HPC).
Setting [12] is: dose: 50.0 mg/kg/injection, schedule: Q01DX005 (ip), vehicle: Klucel (hydroxypropylcellulose) (HPC).
[13] abbreviates: dose: 60.0 mg/kg/injection, schedule: Q01DX005 (ip), vehicle: saline with Tween-80.
The mark [14] stands for this setting: dose: 120.0 mg/kg/injection, schedule: Q01DX005 (ip), vehicle: saline with Tween-80.
The mark [15] stands for this setting: dose: 240.0 mg/kg/injection, schedule: Q01DX005 (ip), vehicle: saline with Tween-80.

Take `C/C=C1\NC(=O)c2csc(n2)C(C(C)C)NC(=O)c2csc(n2)/C(=C/C)NC(=O)C(C(C)O)NC(=O)c2csc(n2)-c2ccc(-c3nc(-c4nc(C(=O)NC(C(=O)NCC(C)O)C(C)O)cs4)cs3)nc2-c2csc1n2` (centres undefined): the T/C was 107 % of control (dose: 0.25 mg/kg/injection, schedule: Q01DX009 (ip), vehicle: Klucel (hydroxypropylcellulose) (HPC)); 112 % of control (dose: 0.5 mg/kg/injection, schedule: Q01DX009 (ip), vehicle: Klucel (hydroxypropylcellulose) (HPC)); 104 % of control (dose: 1.0 mg/kg/injection, schedule: Q01DX009 (ip), vehicle: Klucel (hydroxypropylcellulose) (HPC)); 103 % of control (dose: 2.0 mg/kg/injection, schedule: Q01DX009 (ip), vehicle: Klucel (hydroxypropylcellulose) (HPC)).
`Cc1ccc(S(=O)(=O)Nc2nnc(-c3coc4ccc(C)cc4c3=O)s2)cc1`: the T/C reads like this: under setting [1], 89 % of control; under setting [2], 88 % of control.
As to `CC12CC(CC1=O)CC2S(=O)(=O)O` (centres undefined), the T/C was 96 % of control under setting [3] and 102 % of control under setting [4].
With `CC(C)NC(=O)OCc1c(COC(=O)NC(C)C)c(-c2ccc(Cl)c(Cl)c2)n2c1SCC2`, the T/C reads like this: (dose: 25.0 mg/kg/injection, schedule: Q01DX005 (ip), vehicle: saline with Tween-80) 105 % of control; under setting [1], 115 % of control; under setting [2], 116 % of control and 121 % of control; under setting [5], 117 % of control and 123 % of control; (dose: 400.0 mg/kg/injection, schedule: Q01DX005 (ip), vehicle: saline with Tween-80) 122 % of control.
Take `Cc1cc(=O)n(-c2ccc(S(=O)(=O)Nc3nccs3)cc2)c(C)c1C(=O)O`: the T/C under setting [1] is 103 % of control, the T/C under setting [2] was 98 % of control and the T/C under setting [5] is 100 % of control.
Take `CCCCCC(CN(C)C)C(O)/C=C/c1ccc(Cl)c(Cl)c1` (centres undefined): the T/C under setting [6] is 109 % of control and the T/C under setting [7] is 107 % of control.
For the compound `O=C1NC(=O)C23CCCCc4cccc(c42)C(=O)C13` (centres undefined), the T/C is 100 % of control (dose: 25.0 mg/kg/injection, schedule: Q01DX005 (ip), vehicle: water); 99 % of control (dose: 50.0 mg/kg/injection, schedule: Q01DX005 (ip), vehicle: water); 103 % of control (dose: 100.0 mg/kg/injection, schedule: Q01DX005 (ip), vehicle: water); 100 % of control (dose: 200.0 mg/kg/injection, schedule: Q01DX005 (ip), vehicle: water).
Consider `CC(SC(=O)c1ccccc1)(SC(=O)c1ccccc1)c1ccccc1`, for which the T/C reads like this: under setting [8], 94 % of control; under setting [9], 95 % of control; under setting [10], 93 % of control.
Turning to `O=C([O-])C(=O)[O-].[Co+3].[NH2-].[NH2-].[NH2-].[NH2-].[O-][Cl+3]([O-])([O-])O`, the T/C is 89 % of control (dose: 12.5 mg/kg/injection, schedule: Q04DX003 (ip), vehicle: water); 95 % of control (dose: 25.0 mg/kg/injection, schedule: Q04DX003 (ip), vehicle: water); 98 % of control (dose: 50.0 mg/kg/injection, schedule: Q04DX003 (ip), vehicle: water); 94 % of control (dose: 100.0 mg/kg/injection, schedule: Q04DX003 (ip), vehicle: water).
Consider `C=C(c1ccccc1)c1ccccc1-c1ccccc1C(=C)c1ccccc1`, for which the T/C runs as follows: (dose: 100.0 mg/kg/injection, schedule: Q04DX003 (ip), vehicle: saline) 99 % of control; (dose: 200.0 mg/kg/injection, schedule: Q04DX003 (ip), vehicle: saline) 100 % of control; (dose: 400.0 mg/kg/injection, schedule: Q04DX003 (ip), vehicle: saline) 98 % of control.
For the compound `CC(C)(C)c1cc(C(O)(C(F)(F)F)C(F)(F)F)c2c(c1)C(C(F)(F)F)(C(F)(F)F)OS2(=O)=O`, the T/C runs as follows: under setting [11], 93 % of control; under setting [12], 103 % of control; (dose: 100.0 mg/kg/injection, schedule: Q01DX005 (ip), vehicle: Klucel (hydroxypropylcellulose) (HPC)) 92 % of control; (dose: 200.0 mg/kg/injection, schedule: Q01DX005 (ip), vehicle: Klucel (hydroxypropylcellulose) (HPC)) 91 % of control.
Regarding `O=C1OC(Cc2ccccc2)=C(Cl)C(Cl)(Cc2ccccc2)C1Cl` (centres undefined), the T/C (dose: 100.0 mg/kg/injection, schedule: Q01DX001 (ip), vehicle: Klucel (hydroxypropylcellulose) (HPC)) is 100 % of control and the T/C (dose: 200.0 mg/kg/injection, schedule: Q01DX001 (ip), vehicle: Klucel (hydroxypropylcellulose) (HPC)) was 108 % of control.
As to `c1ccc(CSc2ncnc3n[nH]nc23)cc1`, the T/C is, setting by setting: (dose: 3.12 mg/kg/injection, schedule: Q01DX009 (ip), vehicle: saline) 100 % of control; (dose: 6.25 mg/kg/injection, schedule: Q01DX009 (ip), vehicle: saline) 106 % of control; under setting [6], 104 % of control; under setting [7], 100 % of control.
For the compound `CC[N+](C)(C)c1ccc(/C=C(/C#N)C(=O)OC)cc1`, the T/C runs as follows: (dose: 50.0 mg/kg/injection, schedule: Q01DX009 (ip), vehicle: saline with Tween-80) 100 % of control; (dose: 100.0 mg/kg/injection, schedule: Q01DX009 (ip), vehicle: saline with Tween-80) 103 % of control.
As to `CCOC(=O)C(Cc1ccc(N(CCCl)CCCl)cc1)NC(=O)C(CCC(=O)O)NC(=O)C(Cc1ccc(O)cc1)NC(=O)C(CCCC(=O)O)NC(=O)C(N)Cc1ccc(O)cc1` (centres undefined) (H-Y[Aad]YE[ξPhe(4-N(CH2CH2Cl)2)]-OEt; configuration not given here), the T/C runs as follows: (dose: 25.0 mg/kg/injection, schedule: Q01DX009 (ip), vehicle: Klucel (hydroxypropylcellulose) (HPC)) 162 % of control; under setting [8], 173 % of control and 186 % of control; under setting [9], 189 % of control and 230 % of control; under setting [10], 218 % of control and 220 % of control.
On to `O=[N+]([O-])c1ccc(-c2csc(-c3ccc(Br)cc3)n2)cc1`, for which the T/C was 87 % of control under setting [8], 95 % of control under setting [9] and 92 % of control under setting [10].
For the compound `O=C(Nc1cc(Cl)c(Cl)cc1Cl)N1CCOCC1`, the T/C reads like this: under setting [13], 104 % of control; under setting [14], 105 % of control; under setting [15], 102 % of control.
Regarding `CC1C/C(=C\N=[N+]=[N-])C(=O)O1` (centres undefined), the T/C is 107 % of control (dose: 15.0 mg/kg/injection, schedule: Q01DX005 (ip), vehicle: saline with Tween-80); 105 % of control (dose: 30.0 mg/kg/injection, schedule: Q01DX005 (ip), vehicle: saline with Tween-80); 105 % of control and 94 % of control under setting [13].
As for `COCCO[Si](OCCOC)(OCCOC)OCCOC`, the T/C under setting [8] was 99 % of control and the T/C under setting [9] is 87 % of control.
`CCOC(Cn1cc([N+](=O)[O-])c(=O)[nH]c1=O)OCC`: the T/C by setting is: under setting [11], 90 % of control; under setting [12], 95 % of control.
As to `O=P1(NC23CC4CC(CC(C4)C2)C3)OC(CCl)=NC1c1ccc(C2N=C(CCl)OP2(=O)NC23CC4CC(CC(C4)C2)C3)cc1` (centres undefined), the T/C was 98 % of control under setting [13], 98 % of control under setting [14] and 98 % of control under setting [15].
On to `CNC1=C(C)C(=O)C(C)=C(C(C)(C)CC(=O)n2cc(F)c(=O)[nH]c2=O)C1=O`, for which the T/C was 117 % of control under setting [3] and 122 % of control under setting [4].
Turning to `CC(=O)NC1=C(Cl)C(=O)c2ccccc2C1=O`, the T/C is 98 % of control (dose: 0.78 mg/kg/injection, schedule: Q01DX009 (ip), vehicle: Klucel (hydroxypropylcellulose) (HPC)); 100 % of control (dose: 1.56 mg/kg/injection, schedule: Q01DX009 (ip), vehicle: Klucel (hydroxypropylcellulose) (HPC)); 107 % of control (dose: 3.13 mg/kg/injection, schedule: Q01DX009 (ip), vehicle: Klucel (hydroxypropylcellulose) (HPC)); 104 % of control and 88 % of control (dose: 6.25 mg/kg/injection, schedule: Q01DX009 (ip), vehicle: Klucel (hydroxypropylcellulose) (HPC)).
Turning to `C=C1C(=O)OC2(C)CCC1CC1OC1(C)CC/C=C(\C)CCC2OC(C)=O` (centres undefined), the T/C (dose: 37.5 mg/kg/injection, schedule: Q01DX001 (ip), vehicle: Klucel (hydroxypropylcellulose) (HPC)) is 94 % of control; the T/C (dose: 75.0 mg/kg/injection, schedule: Q01DX001 (ip), vehicle: Klucel (hydroxypropylcellulose) (HPC)) was 92 % of control; the T/C (dose: 150.0 mg/kg/injection, schedule: Q01DX001 (ip), vehicle: Klucel (hydroxypropylcellulose) (HPC)) was 91 % of control; the T/C (dose: 300.0 mg/kg/injection, schedule: Q01DX001 (ip), vehicle: Klucel (hydroxypropylcellulose) (HPC)) was 88 % of control.
